Assays:
[1] = biological target: Serine/threonine-protein kinase Sgk1 (Homo sapiens) (UniProt O00141); settings: Compound concentration 1000.0 nM
[2] = biological target: Tyrosine-protein kinase HCK (Homo sapiens) (UniProt P08631); settings: Compound concentration 1000.0 nM
[3] = biological target: Cyclin-dependent kinase 4 (Homo sapiens) (UniProt P11802); settings: Compound concentration 1000.0 nM
[4] = biological target: Serine/threonine-protein kinase PAK 6 (Homo sapiens) (UniProt Q9NQU5); settings: Compound concentration 1000.0 nM
[5] = biological target: Platelet-derived growth factor receptor beta (Homo sapiens) (UniProt P09619); settings: Compound concentration 1000.0 nM
[6] = biological target: Rhodopsin kinase GRK7 (Homo sapiens) (UniProt Q8WTQ7); settings: Compound concentration 1000.0 nM
[7] = biological target: Serine/threonine-protein kinase WNK1 (Homo sapiens) (UniProt Q9H4A3); settings: Compound concentration 1000.0 nM
[8] = biological target: Mitogen-activated protein kinase kinase kinase 3 (Homo sapiens) (UniProt Q99759); settings: Compound concentration 1000.0 nM
[9] = biological target: Fibroblast growth factor receptor 1 (Homo sapiens) (UniProt P11362); settings: Compound concentration 1000.0 nM
[10] = biological target: Serine/threonine-protein kinase 3 (Homo sapiens) (UniProt Q13188); settings: Compound concentration 1000.0 nM
[11] = biological target: 5-hydroxytryptamine receptor 3A (Homo sapiens, UniProt P46098); assay: GPCRScan assay: inhibition of 5-HT3; design: radioligand conc. used [nm] 1.0 – 2.0, parental cells HEKT
Chain of 5-hydroxytryptamine receptor 3A (P46098 whole entry): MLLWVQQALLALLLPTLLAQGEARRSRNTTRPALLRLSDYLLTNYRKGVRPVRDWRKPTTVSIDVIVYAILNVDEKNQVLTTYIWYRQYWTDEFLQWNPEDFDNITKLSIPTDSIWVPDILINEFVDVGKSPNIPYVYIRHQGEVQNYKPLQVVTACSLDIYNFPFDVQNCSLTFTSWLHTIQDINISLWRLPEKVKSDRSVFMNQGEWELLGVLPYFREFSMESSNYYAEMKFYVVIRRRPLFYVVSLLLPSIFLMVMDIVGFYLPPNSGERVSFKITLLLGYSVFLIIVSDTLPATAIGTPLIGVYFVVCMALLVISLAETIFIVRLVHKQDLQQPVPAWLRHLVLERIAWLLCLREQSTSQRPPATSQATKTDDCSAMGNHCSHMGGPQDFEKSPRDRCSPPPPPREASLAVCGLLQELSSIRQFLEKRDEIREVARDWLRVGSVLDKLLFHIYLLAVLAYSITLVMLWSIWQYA

[12] = biological target: Serine/threonine-protein kinase RIO2 (Homo sapiens) (UniProt Q9BVS4); settings: Compound concentration 1000.0 nM
[13] = biological target: Serine/threonine-protein kinase SIK1 (Homo sapiens) (UniProt P57059); settings: Compound concentration 1000.0 nM
Chain of Serine/threonine-protein kinase SIK1 (Homo sapiens) (P57059 whole entry): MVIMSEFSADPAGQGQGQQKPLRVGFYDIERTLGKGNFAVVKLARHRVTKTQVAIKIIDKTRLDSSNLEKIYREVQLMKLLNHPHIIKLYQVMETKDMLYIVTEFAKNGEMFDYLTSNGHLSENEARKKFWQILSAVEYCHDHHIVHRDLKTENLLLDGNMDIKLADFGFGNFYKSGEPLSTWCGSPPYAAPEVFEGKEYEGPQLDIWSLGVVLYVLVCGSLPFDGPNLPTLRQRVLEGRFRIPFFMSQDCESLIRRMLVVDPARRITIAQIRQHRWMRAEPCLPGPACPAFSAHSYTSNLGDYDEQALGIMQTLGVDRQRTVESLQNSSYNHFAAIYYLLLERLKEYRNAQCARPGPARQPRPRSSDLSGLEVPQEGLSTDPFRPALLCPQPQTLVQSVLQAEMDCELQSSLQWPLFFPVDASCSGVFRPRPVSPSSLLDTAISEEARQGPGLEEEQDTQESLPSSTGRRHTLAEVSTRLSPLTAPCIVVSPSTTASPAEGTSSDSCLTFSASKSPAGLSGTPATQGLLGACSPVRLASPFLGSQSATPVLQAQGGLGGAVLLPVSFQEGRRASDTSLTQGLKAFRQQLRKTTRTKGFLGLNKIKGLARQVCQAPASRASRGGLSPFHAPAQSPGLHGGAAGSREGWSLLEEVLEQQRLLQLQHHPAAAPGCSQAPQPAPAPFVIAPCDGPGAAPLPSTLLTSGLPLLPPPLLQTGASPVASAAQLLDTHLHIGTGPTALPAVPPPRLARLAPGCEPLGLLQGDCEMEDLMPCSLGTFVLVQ

[14] = biological target: cAMP-dependent protein kinase catalytic subunit alpha (Homo sapiens) (UniProt P17612); settings: Compound concentration 1000.0 nM
[15] = biological target: Serine/threonine-protein kinase PAK 3 (Homo sapiens) (UniProt O75914); settings: Compound concentration 1000.0 nM
[16] = biological target: Serine/threonine-protein kinase 32C (Homo sapiens) (UniProt Q86UX6); settings: Compound concentration 1000.0 nM
[17] = biological target: Serine/threonine-protein kinase WNK3 (Homo sapiens) (UniProt Q9BYP7); settings: Compound concentration 1000.0 nM
[18] = biological target: Mitogen-activated protein kinase kinase kinase 12 (Homo sapiens) (UniProt Q12852); settings: Compound concentration 1000.0 nM
[19] = biological target: Serine/threonine-protein kinase D1 (Homo sapiens) (UniProt Q15139); settings: Compound concentration 1000.0 nM
Chain of Serine/threonine-protein kinase D1 (Homo sapiens) (Q15139 whole entry): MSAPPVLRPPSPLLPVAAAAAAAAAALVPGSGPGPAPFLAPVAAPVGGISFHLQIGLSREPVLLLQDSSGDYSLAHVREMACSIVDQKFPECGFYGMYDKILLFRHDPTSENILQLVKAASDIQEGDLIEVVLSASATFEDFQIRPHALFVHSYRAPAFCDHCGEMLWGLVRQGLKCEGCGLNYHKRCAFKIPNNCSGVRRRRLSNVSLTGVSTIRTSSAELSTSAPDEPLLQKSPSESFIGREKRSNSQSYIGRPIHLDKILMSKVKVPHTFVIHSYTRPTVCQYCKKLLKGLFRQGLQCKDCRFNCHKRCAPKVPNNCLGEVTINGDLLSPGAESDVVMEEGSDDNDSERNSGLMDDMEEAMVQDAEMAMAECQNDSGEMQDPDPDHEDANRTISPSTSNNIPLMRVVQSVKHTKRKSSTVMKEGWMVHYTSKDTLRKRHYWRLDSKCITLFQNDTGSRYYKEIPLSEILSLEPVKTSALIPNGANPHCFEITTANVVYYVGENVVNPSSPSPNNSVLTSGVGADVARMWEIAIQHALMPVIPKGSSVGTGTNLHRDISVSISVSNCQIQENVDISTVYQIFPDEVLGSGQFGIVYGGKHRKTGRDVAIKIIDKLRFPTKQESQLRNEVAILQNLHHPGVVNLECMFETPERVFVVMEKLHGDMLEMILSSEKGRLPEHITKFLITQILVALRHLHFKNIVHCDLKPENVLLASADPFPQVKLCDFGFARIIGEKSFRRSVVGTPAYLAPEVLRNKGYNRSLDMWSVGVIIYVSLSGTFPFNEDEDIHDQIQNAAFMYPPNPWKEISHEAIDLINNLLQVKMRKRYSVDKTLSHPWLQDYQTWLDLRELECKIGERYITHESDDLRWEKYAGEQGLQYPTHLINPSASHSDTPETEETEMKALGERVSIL

[20] = biological target: Tyrosine-protein kinase Fer (Homo sapiens) (UniProt P16591); settings: Compound concentration 1000.0 nM
[21] = biological target: Sodium-dependent serotonin transporter (Homo sapiens) (UniProt P31645); settings: Compound concentration 10.0 uM
[22] = biological target: Serine/threonine-protein kinase mTOR (Homo sapiens) (UniProt P42345); settings: Compound concentration 1000.0 nM
[23] = biological target: Tyrosine-protein kinase JAK1 (Homo sapiens) (UniProt P23458); settings: Compound concentration 1000.0 nM
[24] = biological target: Inhibitor of nuclear factor kappa-B kinase subunit beta (Homo sapiens) (UniProt O14920); settings: Compound concentration 1000.0 nM
[25] = biological target: Alpha-2C adrenergic receptor (Homo sapiens) (UniProt P18825); settings: Compound concentration 10.0 uM
Chain of Alpha-2C adrenergic receptor (Homo sapiens) (P18825 whole entry): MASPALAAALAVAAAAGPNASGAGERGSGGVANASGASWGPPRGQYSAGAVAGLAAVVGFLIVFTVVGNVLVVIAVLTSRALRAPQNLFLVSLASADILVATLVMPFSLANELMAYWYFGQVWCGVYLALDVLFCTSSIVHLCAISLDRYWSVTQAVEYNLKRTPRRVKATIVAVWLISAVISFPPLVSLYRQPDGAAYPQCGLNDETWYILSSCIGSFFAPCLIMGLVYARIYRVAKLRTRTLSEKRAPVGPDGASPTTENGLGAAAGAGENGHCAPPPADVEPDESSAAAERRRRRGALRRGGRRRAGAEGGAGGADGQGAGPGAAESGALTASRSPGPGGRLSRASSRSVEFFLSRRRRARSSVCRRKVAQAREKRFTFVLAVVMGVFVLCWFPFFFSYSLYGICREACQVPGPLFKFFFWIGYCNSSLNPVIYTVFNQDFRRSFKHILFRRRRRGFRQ

[26] = biological target: Atypical kinase COQ8A, mitochondrial (Homo sapiens) (UniProt Q8NI60); settings: Compound concentration 1000.0 nM
[27] = biological target: Ribosomal protein S6 kinase alpha-1 (Homo sapiens) (UniProt Q15418); settings: Compound concentration 1000.0 nM
[28] = biological target: Dual specificity testis-specific protein kinase 1 (Homo sapiens) (UniProt Q15569); settings: Compound concentration 1000.0 nM
[29] = biological target: Serine/threonine-protein kinase 10 (Homo sapiens) (UniProt O94804); settings: Compound concentration 1000.0 nM
[30] = biological target: TGF-beta receptor type-1 (Homo sapiens) (UniProt P36897); settings: Compound concentration 1000.0 nM
[31] = biological target: Serine/threonine-protein kinase pim-3 (Homo sapiens) (UniProt Q86V86); settings: Compound concentration 1000.0 nM
[32] = biological target: Dual specificity mitogen-activated protein kinase kinase 2 (Homo sapiens) (UniProt P36507); settings: Compound concentration 1000.0 nM
Chain of Dual specificity mitogen-activated protein kinase kinase 2 (Homo sapiens) (P36507 whole entry): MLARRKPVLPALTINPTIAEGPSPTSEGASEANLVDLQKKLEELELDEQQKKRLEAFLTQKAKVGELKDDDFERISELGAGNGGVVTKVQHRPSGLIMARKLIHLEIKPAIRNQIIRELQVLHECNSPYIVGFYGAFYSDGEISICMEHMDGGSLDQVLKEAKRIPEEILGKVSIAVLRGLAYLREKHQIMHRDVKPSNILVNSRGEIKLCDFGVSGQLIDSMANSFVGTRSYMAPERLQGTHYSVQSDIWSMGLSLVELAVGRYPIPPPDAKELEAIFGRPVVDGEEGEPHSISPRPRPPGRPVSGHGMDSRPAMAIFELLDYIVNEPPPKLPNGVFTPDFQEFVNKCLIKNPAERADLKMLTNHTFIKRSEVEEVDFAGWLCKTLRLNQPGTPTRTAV

[33] = biological target: Testis-specific serine/threonine-protein kinase 1 (Homo sapiens) (UniProt Q9BXA7); settings: Compound concentration 1000.0 nM
[34] = biological target: Serine/threonine-protein kinase 33 (Homo sapiens) (UniProt Q9BYT3); settings: Compound concentration 1000.0 nM
[35] = biological target: Tyrosine-protein kinase ABL1 (Homo sapiens) (UniProt P00519); settings: Compound concentration 1000.0 nM
[36] = biological target: Serine/threonine-protein kinase NLK (Homo sapiens) (UniProt Q9UBE8); settings: Compound concentration 1000.0 nM
[37] = biological target: Myosin-IIIb (Homo sapiens) (UniProt Q8WXR4); settings: Compound concentration 1000.0 nM
[38] = biological target: Mitogen-activated protein kinase kinase kinase 10 (Homo sapiens) (UniProt Q02779); settings: Compound concentration 1000.0 nM
[39] = biological target: Serine/threonine-protein kinase PAK 1 (Homo sapiens) (UniProt Q13153); settings: Compound concentration 1000.0 nM
Chain of Serine/threonine-protein kinase PAK 1 (Homo sapiens) (Q13153 whole entry): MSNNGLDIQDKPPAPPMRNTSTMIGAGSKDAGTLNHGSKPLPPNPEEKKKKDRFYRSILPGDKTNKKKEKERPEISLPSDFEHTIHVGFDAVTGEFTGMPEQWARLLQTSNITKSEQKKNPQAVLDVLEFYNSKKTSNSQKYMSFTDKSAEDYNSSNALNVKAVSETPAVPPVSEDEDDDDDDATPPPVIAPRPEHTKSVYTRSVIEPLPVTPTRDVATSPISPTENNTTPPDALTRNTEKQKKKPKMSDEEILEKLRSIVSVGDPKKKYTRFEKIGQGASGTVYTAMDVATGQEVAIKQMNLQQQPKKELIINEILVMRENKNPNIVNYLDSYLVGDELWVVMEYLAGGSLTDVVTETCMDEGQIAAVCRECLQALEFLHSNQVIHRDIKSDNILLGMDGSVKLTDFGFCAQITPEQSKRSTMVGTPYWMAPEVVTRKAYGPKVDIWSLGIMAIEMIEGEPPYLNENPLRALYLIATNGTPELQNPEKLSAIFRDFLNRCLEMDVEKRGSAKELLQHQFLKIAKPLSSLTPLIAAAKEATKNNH

[40] = biological target: Tyrosine-protein kinase JAK2 (Homo sapiens) (UniProt O60674); settings: Compound concentration 1000.0 nM
[41] = biological target: Calcium/calmodulin-dependent protein kinase type 1 (Homo sapiens) (UniProt Q14012); settings: Compound concentration 1000.0 nM
[42] = biological target: Interleukin-1 receptor-associated kinase 3 (Homo sapiens) (UniProt Q9Y616); settings: Compound concentration 1000.0 nM
[43] = system: Tyrosine-protein kinase ABL1 (Homo sapiens), P00519 [F317L]; settings: Compound concentration 1000.0 nM
Chain of Tyrosine-protein kinase ABL1 (Homo sapiens), P00519 [F317L] (P00519 whole entry F317L): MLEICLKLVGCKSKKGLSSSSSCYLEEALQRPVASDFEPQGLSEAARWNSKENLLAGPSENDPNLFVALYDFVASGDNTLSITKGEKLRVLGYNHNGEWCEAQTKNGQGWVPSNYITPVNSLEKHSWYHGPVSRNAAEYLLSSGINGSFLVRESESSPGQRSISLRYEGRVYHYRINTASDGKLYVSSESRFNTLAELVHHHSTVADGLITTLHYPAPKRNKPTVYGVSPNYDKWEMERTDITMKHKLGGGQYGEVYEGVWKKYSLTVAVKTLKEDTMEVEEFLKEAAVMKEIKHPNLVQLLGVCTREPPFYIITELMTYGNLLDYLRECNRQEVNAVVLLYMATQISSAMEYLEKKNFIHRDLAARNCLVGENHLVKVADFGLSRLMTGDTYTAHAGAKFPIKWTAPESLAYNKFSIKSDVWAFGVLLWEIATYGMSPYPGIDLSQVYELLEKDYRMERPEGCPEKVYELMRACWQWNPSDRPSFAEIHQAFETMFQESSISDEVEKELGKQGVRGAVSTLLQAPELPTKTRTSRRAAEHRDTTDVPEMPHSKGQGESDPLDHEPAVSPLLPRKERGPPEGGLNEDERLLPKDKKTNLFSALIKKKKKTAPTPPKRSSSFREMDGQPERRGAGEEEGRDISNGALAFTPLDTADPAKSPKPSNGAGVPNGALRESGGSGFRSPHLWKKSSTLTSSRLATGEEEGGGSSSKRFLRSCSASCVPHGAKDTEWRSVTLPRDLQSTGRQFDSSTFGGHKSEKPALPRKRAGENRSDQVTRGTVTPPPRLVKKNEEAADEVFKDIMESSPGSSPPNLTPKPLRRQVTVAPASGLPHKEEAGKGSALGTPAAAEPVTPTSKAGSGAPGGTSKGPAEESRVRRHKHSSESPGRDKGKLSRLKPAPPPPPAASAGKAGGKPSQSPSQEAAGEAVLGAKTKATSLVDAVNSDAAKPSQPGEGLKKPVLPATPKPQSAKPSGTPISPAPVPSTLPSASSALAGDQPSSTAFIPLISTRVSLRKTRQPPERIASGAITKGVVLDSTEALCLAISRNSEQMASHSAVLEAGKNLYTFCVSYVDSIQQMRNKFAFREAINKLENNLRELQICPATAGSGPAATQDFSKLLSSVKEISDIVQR

[44] = biological target: GABA-A receptor; anion channel (Rattus norvegicus) (UniProt O09028+P15431+P18506+P18508+P19969+P20236+P23574+P23576+P28471+P28473+P30191+P62813+P63079+P63138+Q91ZM7+Q9ES14); settings: Compound concentration 10.0 uM

## CN(C)CC#Cc1ccc(OCCCc2sc(N3CCc4cccc(C(=O)Nc5nc6ccccc6s5)c4C3)nc2C(=O)O)c(F)c1 [A-1155463]
[1]
  residual activity: 100%
[2]
  residual activity: 100%
[3]
  residual activity: 100%
[4]
  residual activity: 100%
[5]
  residual activity: 94%
[6]
  residual activity: 97%
[7]
  residual activity: 90%
[8]
  residual activity: 90%
[9]
  residual activity: 100%
[10]
  residual activity: 88%
[11]; read-out: Ki
  Ki: 1140 nM
[11]; read-out: pKi (converted)
  Ki: 1070 nM
[12]
  residual activity: 100%
[13]
  residual activity: 100%
[14]
  residual activity: 89%
[15]
  residual activity: 97%
[16]
  residual activity: 75%
[17]
  residual activity: 100%
[18]
  residual activity: 100%
[19]
  residual activity: 100%
[20]
  residual activity: 100%
[21]
  inhibition: 16.4%
[22]
  residual activity: 100%
[23]
  residual activity: 100%
[24]
  residual activity: 72%
[25]
  inhibition: 10.8%
[26]
  residual activity: 100%
[27]
  residual activity: 93%
[28]
  residual activity: 100%
[29]
  residual activity: 100%
[30]
  residual activity: 100%
[31]
  residual activity: 91%
[32]
  residual activity: 100%
[33]
  residual activity: 70%
[34]
  residual activity: 100%
[35]
  residual activity: 100%
[36]
  residual activity: 80%
[37]
  residual activity: 96%
[38]
  residual activity: 100%
[39]
  residual activity: 98%
[40]
  residual activity: 100%
[41]
  residual activity: 93%
[42]
  residual activity: 77%
[43]
  residual activity: 100%
[44]
  inhibition: 36.8%
